Converted amounts (≈) assume the structure as drawn. Where two headings read alike, the source gives them in different places.

Data set [1] has as its system pool of normal hepatocytes (HC3_23). Put plainly: Normal hepatocyte toxicity, Calcein-AM. Type of data set: cell-based. Particulars: Homo sapiens, 48-hour incubation, William's E media. The procedure: To evaluate the safety margin of the compounds prior to clinical trials, the toxicity of the compounds toward a pool of normal hepatocytes was investigated in-house using a hepatocyte pool obtained from Xenotech (HC3_23). Cells were thawed and plated in 96 well, black walled, gamma-irradiated plates (100 μl) after reconstitution in William's E media with Gibco hepatocellular maintenance supplement. Following an 18-hour recovery period, the media was exchanged with the same media containing 9 serial dilutions of the test compound mixtures (8 to 2000 μg/ml). Experiments were performed in triplicate. Following a 48-hour incubation period, Calcein-AM was added to provide a final concentration of 7 ng/ml to each well and allowed to react for 60 minutes before readings were acquired (excitation 494 nm, emission 517 nm). Data were fit to sigmoidal curves using four-point logistic curve fitting software and the 50% inflection points used for IC50 values.

In another data set the test system is HepG2 cells. Put plainly: HepG2 cell proliferation assay (XTT). Type of data set: cell-based, human. The following applies: Homo sapiens. The method, then:
HepG2 cells were obtained from the American Type Culture Collection (ATCC). Normal hepatocyte pool of cells was acquired from Xenotech. Cryopreserved cells in DMEM containing 5% DMSO were thawed and diluted 10-fold in phenol red free DMEM media containing 10% fetal bovine serum, 100 μg/ml penicillin/streptomycin, supplemented with Glutamax™ and sodium pyruvate. Subsequently, cells were centrifuged at 20 g for 10 minutes. The cells were resuspended in the same media with added Revitacell® to a concentration of […]. Ninety-six well cell culture treated flat bottom plates were seeded with 7.5×10^3 cells in 100 μl and incubated at 37° C., 7.5% CO2, >95% relative humidity for 18 hours to allow cellular adhesion after which media was replaced with like media (DMEM, IMDM, Williams E) containing 1 to 20% FBS and various test compounds (10 μg/ml to 100 ng/ml). After 48 hours (2 doublings of cells), sodium; 2-(2-methoxy-4-nitro-5-sulfonatophenyl)-3-(2-methoxy-4-nitro-5-sulfophenyl)-N-phenyltetrazol-3-ium-5-carboximidate (XTT) (300 μg/ml) was added, and cells incubated for 2 hours. Formazan production was measured at 450 nm on a Varioskan lux spectrophotometer. Non-specific absorption was measured at 660 nm and subtracted from the reference measurement at 450 nm. Experiments were performed in triplicates (n=3). […]
The objectives of this example are to, first, establish the procedure of a two-component interaction study; and second, establish a method of analysis to identify potential interactions among the two components/compounds. […] Following 48 hours of incubation, the IC50 values of various mixtures were obtained and compared with the pure compound's IC50 values and predicted/calculated IC50 values for the various mixtures. […]
Samples from the serial dilutions were analyzed by LC-MS/MS to orthogonally confirm concentrations. […]
To assess potential interactions, the IC50 values for individual cannabinoids in the control lanes were calculated and used to predict and IC50 value for the summation of their individual components.

For data set [2] the following is noted: sorafenib, cited from earlier work.
In data set [3] the test system is HCC PDX models 575, 658, and LI-011. Put plainly: Clonogenic assay on patient-derived xenograft tumor cells. Type of data set: cell-based. Particulars: Homo sapiens, 336 h; 575, 658, LI-011; 14 days continuous exposure; P=0.023; read-out: IC50 values, all PDX models examined. The procedure:
Tumor xenografts (patient-derived: 575, […], and LI-011; as well as cell line-derived: HepG2) were passaged as subcutaneous xenografts in NMRI nu/nu mice. Once tumor volumes reached 600-1000 mm^3, tumors were harvested according to FELASA and GV-SOLAS animal welfare guidelines. Tumors were mechanically disaggregated and subsequently incubated with collagenase type IV (41 U/mL), DNase I (125 U/mL), hyaluronidase type III (100 U/mL), and dispase II (1 U/mL) in RPMI 1640 medium at 37° C. for 60-120 minutes. Cells were filtered through 100 μm and 40 μm mesh size sieves and washed with the same media devoid of enzymes and stored in liquid nitrogen vapor phase.
The clonogenic assay was carried out in 96 well, ultra-low attachment plates. Frozen aliquots of tumor cells were prepared from HepG2 HCC cells and the three tumor xenografts described above. Cells were thawed in Iscove's Modified Dulbecco's Medium (IMDM), supplemented with 20% (v/v) fetal calf serum, 50 μg/ml gentamicin, 1% ethanol, and 0.4% (w/v) agar prior to use. Test wells were first layered with 100 μl of the same soft-agar medium followed by 50 μl of media with tumor cells. Following solidification, the soft-agar layer was covered with 90 μl of the same culture medium without agar. After 24 hours, 10 μl of test compounds or control medium were added and left for 14 days (continuous exposure, 100 μl drug overlay). […]

For the molecule `CNC(=O)c1cc(Oc2ccc(NC(=O)Nc3ccc(Cl)c(C(F)(F)F)c3)cc2)ccn1` [Sorafenib], the IC50 in data set [1] was 70.1 µg/mL (≈ 151 µM). Besides, the IC50 with HepG2 cells (IMDM media with 20% FBS and 1% ethanol, read-out: predetermined IC50 concentrations) was found to be 12 µM. Also, the IC50 with HepG2 cells (XTT, DMEM media with 20% FBS, 48 hour treatment, read-out: IC50 HepG2) stood at 9.8 µg/mL. For the same molecule, in data set [2] (fasted simulated intestinal fluid, value marked [1]), the “Solubility, μg/ml FaSSIF” value is 3.3 [1] μg/ml. For the same molecule, the “F (oral bioavailability)” value in data set [2] (value marked [1]) is 0.38-0.49[1]. Moreover, in data set [2] (value marked [3]), the “ClH (Hepatic clearance)” value was ~0.051-0.066[3] L/min; the “ClTB (Total body clearance)” value is 0.051-0.066[3] L/min; the “Vd, ss (Volume of distribution at steady state)” value is 1.01-1.3[3] L/kg; the “t½ (Half-life)” value is 14.09-18.23[3] hours. Moreover, the IC50 in data set [3] came to 14.3 µM.
